Laboratory results: US12077503B2, “Substituted cyclic amides and their use as herbicides” (FMC CORPORATION, priority 2015, dated 2024)

Legend:
Type in all cases: in vivo
Kochia (Kochia scoparia) [1] = test: Test A preemergence
In short: (§1)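 In a loam soil and sand blend, planted seeds got a preemergence directed soil spray, and young plants at the one- to two-leaf stage, 2–10 cm high, got a postemergence application; ~10 d greenhouse hold; injury rated visually, 0 = none, 100 = complete control.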

[2] = test system: barnyardgrass (Echinochloa crus-galli); test: Test A preemergence
In short: as §1

[3] = test system: giant foxtail (Setaria faberii); test: Test A preemergence
In short: as §1

[4] = test system: pigweed (Amaranthus retroflexus); test: Test A preemergence
[5] = test system: ragweed (common ragweed, Ambrosia elatior); test: Test A preemergence
In short: as §1

[6] = test system: ryegrass, Italian (Italian ryegrass, Lolium multiflorum); test: Test A preemergence
In short: as §1

[7] = test system: Galium (catchweed bedstraw, Galium aparine); test: Test A postemergence; conditions: postemergence, 0 to 100 scale (0 no effect, 100 complete control)
In short: as §1

Kochia (Kochia scoparia) [8] = test: Test A postemergence; conditions: postemergence, 0 to 100 scale (0 no effect, 100 complete control)
In short: as §1

[9] = test system: barnyardgrass (Echinochloa crus-galli); test: Test A postemergence
In short: as §1

[10] = test system: blackgrass (Alopecurus myosuroides); test: Test A postemergence
In short: as §1

corn (Zea mays) = test: Test A postemergence
In short: as §1

[11] = test system: giant foxtail (Setaria faberii); test: Test A postemergence; conditions: postemergence, 0 to 100 scale (0 no effect, 100 complete control)
In short: as §1

[12] = test system: pigweed (Amaranthus retroflexus); test: Test A postemergence; conditions: postemergence, 0 to 100 scale (0 no effect, 100 complete control)
In short: as §1

[13] = test system: ragweed (common ragweed, Ambrosia elatior); test: Test A postemergence; conditions: postemergence, 0 to 100 scale (0 no effect, 100 complete control)
In short: as §1

[14] = test system: ryegrass, Italian (Italian ryegrass, Lolium multiflorum); test: Test A postemergence; conditions: postemergence, 0 to 100 scale (0 no effect, 100 complete control)
In short: as §1

[15] = test system: wheat (Triticum aestivum); test: Test A postemergence; conditions: postemergence, 0 to 100 scale (0 no effect, 100 complete control)
In short: as §1

[16] = test system: barnyardgrass (Echinochloa crus-galli); test: Test B flooded paddy test; conditions: Flood, 250 g ai/ha; 0 to 100 scale where 0 is no effect and 100 is complete control; 13 to 15 d
In short: (§2)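 2-leaf plants; pots flooded 3 cm over soil; cpd added to paddy water; depth held; greenhouse 13–15 d; visual rating vs controls, 0 = no effect, 100 = complete control.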

[17] = test system: ducksalad (Heteranthera limosa); test: Test B flooded paddy test; conditions: Flood, 250 g ai/ha; 0 to 100 scale where 0 is no effect and 100 is complete control; 13 to 15 d
In short: as §2

rice (Oryra sativa) = test: Test B flooded paddy test; conditions: Flood, 250 g ai/ha; 0 to 100 scale where 0 is no effect and 100 is complete control; 13 to 15 d
In short: as §2

[18] = test system: sedge, umbrella (small-flower umbrella sedge, Cyperus difformis); test: Test B flooded paddy test; conditions: Flood, 250 g ai/ha; 0 to 100 scale where 0 is no effect and 100 is complete control; 13 to 15 d
In short: as §2

[19] = test system: barnyardgrass (Echinochloa crus-galli); test: Test C flooded paddy test; conditions: Flood; for Plant response rating (scale of 0 to 100), Barnyardgrass: 0 is no effect, 100 is complete control
In short: (§3)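 Test compounds were dosed straight into the flood water of pots holding 2-leaf-stage plants, with water kept 3 cm above the soil. Greenhouse plants were scored visually against controls after 13 to 15 d, from 0 (no effect) to 100 (complete control).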

[20] = test system: ducksalad (Heteranthera limosa); test: Test C flooded paddy test; conditions: Flood; for Plant response rating (scale of 0 to 100), Ducksalad: 0 is no effect, 100 is complete control
In short: as §3

rice (Oryza sativa) = test: Test C flooded paddy test; conditions: Flood; for Plant response rating (scale of 0 to 100), Rice: 0 is no effect, 100 is complete control
In short: as §3

[21] = test system: sedge, umbrella (small-flower umbrella sedge, Cyperus difformis); test: Test C flooded paddy test; conditions: Flood; for Plant response rating (scale of 0 to 100), Sedge, Umbrella: 0 is no effect, 100 is complete control
In short: as §3

[22] = 125 g ai/ha, Preemergence, visual injury after approximately 10 d, 0 to 100 scale where 0 is no effect and 100 is complete control
[23] = 500 g ai/ha, preemergence, 0 to 100 scale, 0 = no effect, 100 = complete control
[24] = 125 g ai/ha, visual rating after approx. 10 d
[25] = 500 g ai/ha, visual injury, approx. 10 d
[26] = 125 g ai/ha, postemergence, visual rating after approx. 10 d, 0 to 100 scale (0 no effect, 100 complete control)
[27] = Postemergence, 500 g ai/ha, 0 to 100 scale where 0 is no effect and 100 is complete control
[28] = 31 g ai/ha, scale 0 to 100 (0 no effect, 100 complete control), 13 to 15 d

CN1CC(c2cccc(C(F)(F)F)c2)C(C(=O)Nc2ccccc2C(F)(F)F)C1=O (stereo not shown) [Compound 638]
Plant response rating, Kochia (Kochia (Kochia scoparia) [1]; [22]): 0
Plant response rating, Kochia (Kochia (Kochia scoparia) [1]; [23]): 20
Plant response rating, Barnyardgrass [2, 22]: 90
Plant response rating, Barnyardgrass [2, 23]: 90
Plant response rating, Foxtail, Giant [3, 22]: 90
Plant response rating, Foxtail, Giant [3, 23]: 100
Plant response rating, Pigweed [4, 22]: 40
Plant response rating, Pigweed [4, 23]: 60
Plant response rating, Ragweed [5, 22]: 30
Plant response rating, Ragweed [5, 23]: 60
Plant response rating, Ryegrass, Italian [6, 22]: 30
Plant response rating, Ryegrass, Italian [6, 23]: 90
Plant response rating, Galium [7, 24]: 60
Plant response rating, Galium [7, 25]: 60
Plant response rating, Kochia (Kochia (Kochia scoparia) [8]; [24]): 20
Plant response rating, Kochia (Kochia (Kochia scoparia) [8]; [25]): 40
Plant response rating, Barnyardgrass [9, 26]: 90
Plant response rating, Barnyardgrass [9, 27]: 90
Plant response rating, Blackgrass [10, 26]: 50
Plant response rating, Blackgrass [10, 27]: 70
Plant response rating, Corn (corn (Zea mays); [26]): 70
Plant response rating, Corn (corn (Zea mays); [27]): 80
Plant response rating, Foxtail, Giant [11, 24]: 90
Plant response rating, Foxtail, Giant [11, 25]: 90
Plant response rating, Pigweed [12, 24]: 20
Plant response rating, Pigweed [12, 25]: 50
Plant response rating, Ragweed [13, 24]: 0
Plant response rating, Ragweed [13, 25]: 0
Plant response rating, Ryegrass, Italian [14, 24]: 30
Plant response rating, Ryegrass, Italian [14, 25]: 40
Plant response rating, Wheat [15, 24]: 60
Plant response rating, Wheat [15, 25]: 70
Plant response rating, Barnyardgrass [16]: 85
Plant response rating, Ducksalad [17]: 100
Plant response rating, Rice (rice (Oryra sativa)): 10
Plant response rating, Sedge, Umbrella [18]: 0
Plant response rating, Barnyardgrass [19, 28]: 45
Plant response rating (scale of 0 to 100), Barnyardgrass ([19]; 62 g ai/ha): 55
Plant response rating (scale of 0 to 100), Barnyardgrass ([19]; 125 g ai/ha): 60
Plant response rating (scale of 0 to 100), Barnyardgrass ([19]; 250 g ai/ha): 75
Plant response rating, Ducksalad [20, 28]: 0
Plant response rating (scale of 0 to 100), Ducksalad ([20]; 62 g ai/ha): 40
Plant response rating (scale of 0 to 100), Ducksalad ([20]; 125 g ai/ha): 60
Plant response rating (scale of 0 to 100), Ducksalad ([20]; 250 g ai/ha): 75
Plant response rating, Rice (rice (Oryza sativa); [28]): 20
Plant response rating (scale of 0 to 100), Rice (rice (Oryza sativa); 62 g ai/ha): 25
Plant response rating (scale of 0 to 100), Rice (rice (Oryza sativa); 125 g ai/ha): 25
Plant response rating (scale of 0 to 100), Rice (rice (Oryza sativa); 250 g ai/ha): 25
Plant response rating, Sedge, Umbrella [21, 28]: 0
Plant response rating (scale of 0 to 100), Sedge, Umbrella ([21]; 62 g ai/ha): 0
Plant response rating (scale of 0 to 100), Sedge, Umbrella ([21]; 125 g ai/ha): 0
Plant response rating (scale of 0 to 100), Sedge, Umbrella ([21]; 250 g ai/ha): 0
